Laboratory results from patent US8217060B2, “Benzimidazole derivatives useful as TRP M8 receptor modulators” (Janssen Pharmaceutica, NV, priority 2009, dated 2012).
Counter-ions that a name gives are not always drawn.

Biological target: T1, canine TRPM8 (Canis lupus familiaris, UniProt Q1A7N1)
T1 construct: expressed in transfected cells
Experiment: In Vitro Canine TRPM8 Functional Assay (icilin-induced intracellular Ca2+ fluorescence, FLIPR/FDSS)
Format: cell-based
Details: HEK293 cells stably expressing canine TRPM8; for inhibition at 0.2 µM: 0.2 μM test compound, icilin challenge; for IC50: icilin challenge (~80% maximal response), eight-point dose-response
Method: The functional activity of representative compounds of the formula (I) of the present invention were measured by measuring changes in intracellular calcium concentration using a Ca^2+-sensitive fluorescent dye. The changes in fluorescent signal were monitored by a fluorescence plate reader, either a FLIPR™ (Molecular Devices) or FDSS (Hamamatsu).
HEK293 cells stably expressing canine TRPM8 were routinely grown as monolayers in Dulbecco's minimum essential medium supplemented with 10% FBS, 2 mM L-glutamine, 100 units/mL penicillin, 100 ug/mL streptomycin and 400 μg/mL G418. Cells were maintained in 5% CO2 at 37° C. At 24 hrs prior to assay, cells were seeded in black wall, clear-base poly-D-lysine coated 384-well plates (BD Biosciences, NJ, USA) at a density of 5,000 cells per well in culture medium and grown overnight in 5% CO2 at 37° C. On assay day, growth media was removed and cells were loaded with Calcium 3 Dye (Molecular Devices) for 35 min at 37° C., under 5% CO2 and then for 25 min at room temperature and atmosphere. Subsequently, cells were tested for agonist-induced increases in intracellular Ca^2+ levels using FLIPR™ or FDSS. Cells were challenged with compounds of the formula (I) (at varying concentrations) and intracellular Ca^2+ was measured for 5 min prior to the addition of icilin to all wells to achieve a final concentration that produces approximately an 80% maximal response.
Basal FI was subtracted prior to normalizing data to percent of maximal response. Curves were generated using the average of quadruplicate wells for each data point, were analyzed using nonlinear regression of either sigmoidal dose response or sigmoidal dose response (variable slope). Finally, the EC50 and IC50 values were calculated with the best-fit dose curve determined by GraphPad Prism

T1 sequence (Q1A7N1 1-1104): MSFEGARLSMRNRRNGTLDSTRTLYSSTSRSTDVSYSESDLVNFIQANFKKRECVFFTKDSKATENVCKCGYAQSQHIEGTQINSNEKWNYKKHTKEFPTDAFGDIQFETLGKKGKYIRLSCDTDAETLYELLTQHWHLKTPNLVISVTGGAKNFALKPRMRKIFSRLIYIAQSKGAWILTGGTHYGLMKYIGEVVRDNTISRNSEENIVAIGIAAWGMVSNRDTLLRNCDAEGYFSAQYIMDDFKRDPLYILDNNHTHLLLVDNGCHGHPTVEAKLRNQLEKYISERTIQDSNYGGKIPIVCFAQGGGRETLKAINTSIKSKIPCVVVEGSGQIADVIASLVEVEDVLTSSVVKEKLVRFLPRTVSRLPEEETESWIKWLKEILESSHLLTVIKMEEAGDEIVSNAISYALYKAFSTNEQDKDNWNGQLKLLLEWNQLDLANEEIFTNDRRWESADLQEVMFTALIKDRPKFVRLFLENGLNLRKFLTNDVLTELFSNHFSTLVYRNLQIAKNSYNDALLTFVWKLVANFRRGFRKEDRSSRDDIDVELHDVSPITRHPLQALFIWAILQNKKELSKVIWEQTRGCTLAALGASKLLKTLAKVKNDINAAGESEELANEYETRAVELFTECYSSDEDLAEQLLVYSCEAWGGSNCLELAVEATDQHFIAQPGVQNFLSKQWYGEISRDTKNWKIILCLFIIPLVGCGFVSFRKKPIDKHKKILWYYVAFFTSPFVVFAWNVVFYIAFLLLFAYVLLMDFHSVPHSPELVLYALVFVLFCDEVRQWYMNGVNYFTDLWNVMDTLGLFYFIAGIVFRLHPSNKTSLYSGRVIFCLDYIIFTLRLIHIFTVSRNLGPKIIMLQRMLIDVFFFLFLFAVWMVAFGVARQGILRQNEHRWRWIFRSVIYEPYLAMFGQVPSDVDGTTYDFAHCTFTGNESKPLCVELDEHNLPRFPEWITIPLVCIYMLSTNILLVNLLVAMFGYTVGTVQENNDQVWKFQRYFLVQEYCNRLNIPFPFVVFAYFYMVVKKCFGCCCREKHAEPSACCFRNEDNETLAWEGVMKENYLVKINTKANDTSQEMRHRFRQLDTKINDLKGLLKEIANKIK

SMILES	inhibition at 0.2 µM [%]	IC50 [nM]
C(=CC1CCCCC1)c1nc2cc(-c3ccccc3)ccc2[nH]1 [Compound 2, 2-(2-Cyclohexyl-vinyl)-5-phenyl-1H-benzimidazole]	96	110
Cc1ccccc1-c1ccc2[nH]c(C=CC3CCCCC3)nc2c1 [Compound 3, 2-(2-Cyclohexyl-vinyl)-5-o-tolyl-1H-benzimidazole]	103	7
FC(F)(F)COc1ccccc1-c1ccc2[nH]c(C=CC3CCCCC3)nc2c1 [Compound 4, 2-(2-Cyclohexyl-vinyl)-5-[2-(2,2,2-trifluoro-ethoxy)-phenyl]-1H-benzimidazole]	103	3
Oc1cccc(-c2ccc3[nH]c(C=CC4CCCCC4)nc3c2)c1 [Compound 5, 3-[2-(2-Cyclohexyl-vinyl)-1H-benzimidazol-5-yl]-phenol]	18	
OCc1ccccc1-c1ccc2[nH]c(/C=C/C3CCCCC3)nc2c1 [Compound 6]	103	12
CC1(c2ccccc2-c2ccc3[nH]c(C=CC4CCCCC4)nc3c2)OCCO1 [Compound 7, 2-(2-Cyclohexyl-vinyl)-5-[2-(2-methyl-[1,3]dioxolan-2-yl)-phenyl]-1H-benzimidazole]	103	34
CC(=O)c1ccccc1-c1ccc2[nH]c(C=CC3CCCCC3)nc2c1 [Compound 8, 1-{2-[2-(2-Cyclohexyl-vinyl)-1H-benzimidazol-5-yl]-phenyl}-ethanone]	97	41
Fc1ccc(Cl)c(-c2ccc3[nH]c(C=CC4CCCCC4)nc3c2)c1 [Compound 9, 5-(2-Chloro-5-fluoro-phenyl)-2-(2-cyclohexyl-vinyl)-1H-benzimidazole]	101	11
Fc1cccc(Cl)c1-c1ccc2[nH]c(C=CC3CCCCC3)nc2c1 [Compound 10, 5-(2-Chloro-6-fluoro-phenyl)-2-(2-cyclohexyl-vinyl)-1H-benzimidazole]	101	6
COc1cccc(F)c1-c1ccc2[nH]c(C=CC3CCCCC3)nc2c1 [Compound 11, 2-(2-Cyclohexyl-vinyl)-5-(2-fluoro-6-methoxy-phenyl)-1H-benzimidazole]	102	32
COc1cc(F)ccc1-c1ccc2[nH]c(C=CC3CCCCC3)nc2c1 [Compound 12, 2-(2-Cyclohexyl-vinyl)-5-(4-fluoro-2-methoxy-phenyl)-1H-benzimidazole]	92	39
COc1cccc(OC)c1-c1ccc2[nH]c(C=CC3CCCCC3)nc2c1 [Compound 14, 2-(2-Cyclohexyl-vinyl)-5-(2,6-dimethoxy-phenyl)-1H-benzimidazole]	95	2
Fc1cccc(F)c1-c1ccc2[nH]c(C=CC3CCCCC3)nc2c1 [Compound 15, 2-(2-Cyclohexyl-vinyl)-5-(2,6-difluoro-phenyl)-1H-benzimidazole]	102	28
Fc1ccccc1-c1ccc2[nH]c(C=CC3CCCCC3)nc2c1 [Compound 16, 2-(2-Cyclohexyl-vinyl)-5-(2-fluoro-phenyl)-1H-benzimidazole]	102	14
Cc1ccsc1-c1ccc2[nH]c(C=CC3CCCCC3)nc2c1 [Compound 17, 2-(2-Cyclohexyl-vinyl)-5-(3-methyl-thiophen-2-yl)-1H-benzimidazole]	102	17
COc1ccc(Cl)c(-c2ccc3[nH]c(C=CC4CCCCC4)nc3c2)c1 [Compound 18, 5-(2-Chloro-5-methoxy-phenyl)-2-(2-cyclohexyl-vinyl)-1H-benzimidazole]	101	32
Clc1ccc(Cl)c(-c2ccc3[nH]c(C=CC4CCCCC4)nc3c2)c1 [Compound 19, 2-(2-Cyclohexyl-vinyl)-5-(2,5-dichloro-phenyl)-1H-benzimidazole]	86	34
COc1ccc(Cl)cc1-c1ccc2[nH]c(C=CC3CCCCC3)nc2c1 [Compound 20, 5-(5-Chloro-2-methoxy-phenyl)-2-(2-cyclohexyl-vinyl)-1H-benzimidazole]	85	53

SMILES	inhibition at 0.2 µM [%]	IC50 [nM]
Fc1ccc(F)c(-c2ccc3[nH]c(C=CC4CCCCC4)nc3c2)c1 [Compound 22, 2-(2-Cyclohexyl-vinyl)-5-(2,5-difluoro-phenyl)-1H-benzimidazole]	101	31
Fc1ccccc1-c1ccc2[nH]c(C=CC3CCCC3)nc2c1 [Compound 24, 2-(2-Cyclopentyl-vinyl)-5-(2-fluoro-phenyl)-1H-benzimidazole]	85	97
Cc1ccsc1-c1ccc2[nH]c(C=CC3CCCC3)nc2c1 [Compound 25, 2-(2-Cyclopentyl-vinyl)-5-(3-methyl-thiophen-2-yl)-1H-benzimidazole]	102	13
FC(F)(F)Oc1ccccc1-c1ccc2nc(C=CC3CCCC3)[nH]c2c1 [Compound 26, 2-(2-Cyclopentyl-vinyl)-5-(2-trifluoromethoxy-phenyl)-1H-benzimidazole]	100	33
N#Cc1ccccc1-c1ccc2[nH]c(C=CC3CCCC3)nc2c1 [Compound 27, 2-[2-(2-Cyclopentyl-vinyl)-1H-benzimidazol-5-yl]-benzonitrile]	100	47
OCc1ccccc1-c1ccc2[nH]c(C=CC3CCCC3)nc2c1 [Compound 28, {2-[2-(2-Cyclopentyl-vinyl)-1H-benzimidazol-5-yl]-phenyl}-methanol]	95	42
CC(=O)c1ccccc1-c1ccc2[nH]c(C=CC3CCCC3)nc2c1 [Compound 29, 1-{2-[2-(2-Cyclopentyl-vinyl)-1H-benzimidazol-5-yl]-phenyl}-ethanone]	77	170
FC1=CCC(C=Cc2nc3cc(-c4ccccc4C(F)(F)F)ccc3[nH]2)CC1 (stereo not drawn) [Compound 31, 2-[2-(4-Fluoro-cyclohex-3-enyl)-vinyl]-5-(2-trifluoromethyl-phenyl)-1H-benzimidazole]	102	6
FC1=CCC(C=Cc2nc3cc(-c4ccccc4OC(F)(F)F)ccc3[nH]2)CC1 (stereo not drawn) [Compound 32, 2-[2-(4-Fluoro-cyclohex-3-enyl)-vinyl]-5-(2-trifluoromethoxy-phenyl)-1H-benzoimidazole hydrochloride salt]	101	5.2
COc1ccc(F)cc1-c1ccc2[nH]c(C=CC3CC=C(F)CC3)nc2c1 (stereo not drawn) [Compound 33, 2-[2-(4-Fluoro-cyclohex-3-enyl)-vinyl]-5-(5-fluoro-2-methoxy-phenyl)-1H-benzoimidazole hydrochloride salt]	101	9
FC1=CCC(C=Cc2nc3cc(-c4ccccc4Cl)ccc3[nH]2)CC1 (stereo not drawn) [Compound 34, 5-(2-Chloro-phenyl)-2-[2-(4-fluoro-cyclohex-3-enyl)-vinyl]-1H-benzoimidazole hydrochloride salt]	101	5
Cc1cccc(C)c1-c1ccc2[nH]c(C=CC3CC=C(F)CC3)nc2c1 (stereo not drawn) [Compound 35, 5-(2,6-Dimethyl-phenyl)-2-[2-(4-fluoro-cyclohex-3-enyl)-vinyl]-1H-benzoimidazole hydrochloride salt]	100	4
FC1=CCC(C=Cc2nc3cc(-c4ccccc4F)ccc3[nH]2)CC1 (stereo not drawn) [Compound 36, 2-[2-(4-Fluoro-cyclohex-3-enyl)-vinyl]-5-(2-fluoro-phenyl)-1H-benzoimidazole hydrochloride salt]	100	16
FC1(F)CCC(C=Cc2nc3cc(-c4ccccc4OC(F)(F)F)ccc3[nH]2)CC1 [Compound 37, 2-[2-(4,4-Difluoro-cyclohexyl)-vinyl]-5-(2-trifluoromethoxy-phenyl)-1H-benzoimidazole hydrochloride salt]	100	8
FC1(F)CCC(C=Cc2nc3cc(-c4ccccc4Cl)ccc3[nH]2)CC1 [Compound 38, 5-(2-Chloro-phenyl)-2-[2-(4,4-difluoro-cyclohexyl)-vinyl]-1H-benzoimidazole hydrochloride salt]	101	3.5
Fc1ccccc1-c1ccc2[nH]c(C=CC3CCC(F)(F)CC3)nc2c1 [Compound 39, 2-[2-(4,4-Difluoro-cyclohexyl)-vinyl]-5-(2-fluoro-phenyl)-1H-benzoimidazole hydrochloride salt]	101	9
COc1cccc(OC)c1-c1ccc2[nH]c(C=CC3CC=C(F)CC3)nc2c1 (stereo not drawn) [Compound 40, 5-(2,6-Dimethoxy-phenyl)-2-[2-(4-fluoro-cyclohex-3-enyl)-vinyl]-1H-benzoimidazole hydrochloride salt]	101	2
